Data from US20260191924A1, “METHODS AND COMPOSITIONS FOR TREATING VIRAL INFECTIONS” (DST Pharma, Inc., priority 2020, published 2026).

Assays:
[1] = test system: FCV F9; assay: Effect of 5,7,3′,4′-tetrarydroxyflavon-3-ol C4-C8 dimers on FCV F9 infection of CRFK cells; type: cell-based, feline calicivirus (cat kidney CRFK cells); settings: 0.1% dimers, added before, with or after virus (FIG. 6)
Procedure: 50 μl of virus was added to 450 μl complete EMEM to create a 10^−1 viral mix. A series of dilutions made from this mix up to 10^−8. Virus was added to all wells by loading 250 μl from each dilution to the designated wells. 3 well repeats were prepared. Purified 5, 7, 3′, 4′-tetrarydroxyflavon-3-ol C4-C8 dimers was diluted to 0.1% in complete EMEM.
For experiments in which 5, 7, 3′, 4′-tetrarydroxyflavon-3-ol C4-C8 dimers was added before the virus, 5, 7, 3′, 4′-tetrarydroxyflavon-3-ol C4-C8 dimers was diluted to 0.1% using MM (1:100), added to cells and incubated for 1 hour before the virus was added to the cells.
For experiments in which 5, 7, 3′, 4′-tetrarydroxyflavon-3-ol C4-C8 dimers was added simultaneously with the virus, the virus was diluted in 0.1% purified complete EMEM, added to wells, incubated for 1 hour, then complete EMEM was added to the wells.
For experiments in which 5, 7, 3′, 4′-tetrarydroxyflavon-3-ol C4-C8 dimers was added after viral infection, viral dilutions were added to wells, incubated for 1 hour, 0.1% complete EMEM was added to the wells. The medium was changed to complete EMEM after 60 minutes.

[2] = test system: FCV F9; assay: Effect of quercetin on FCV F9 infection of CRFK cells; type: cell-based, feline calicivirus (cat kidney CRFK cells); settings: 0.1% quercetin, added 1 hour before, with, or 1 hour after virus (FIG. 4)
Procedure: 50 μl of the virus was added to 450 μl HBSS making a 10^−1 viral titer mix. A series of dilutions made from this mix up to 10^−8. Virus was added to all wells by loading 250 μl from each dilution to the designated wells, same as for viral titer. 3 well repeats were prepared. Quercetin was prepared at 10% quercetin in DMSO.
For experiments in which quercetin was added before viral infection, the quercetin was diluted to 0.1% using MM (1:100), added to cells, and incubated for 1 hour.
For experiments in which quercetin was added at the same time as viral infection, the virus was diluted in 0.1% quercetin MM/DMSO, added to wells, incubated for 1 hour, and then MM was added.
For experiments in which quercetin was added after viral infection, viral dilutions were added to the cells, incubated for 1 hour, then 0.1% quercetin in MM/DMSO was added. The medium was changed to MM after 60 minutes.

Structure (SMILES)	effect against FCV infection [1]	inhibition of FCV F9 infection of CRFK cells [2]
Oc1cc(O)c2c(c1)OC(c1ccc(O)c(O)c1)C(O)C2c1c(O)cc(O)c2c1OC(c1ccc(O)c(O)c1)C(O)C2 (centres unmarked) [5,7, 3′, 4′-tetrahydroxyflavan-3-ol C4-C8 dimers]	effective against FCV infection comparable to quercetin and better than rutin	–
O=c1c(O)c(-c2ccc(O)c(O)c2)oc2cc(O)cc(O)c12 [quercetin, 3, 3′, 4′, 5,7-pentahydroxyfivanone]	–	significantly inhibited
